Test [1] relates to parental and drug-resistant ID8 cells. The test is classed as cell-based, murine. Particulars: 72-h cell viability assay, ID8-R versus parental cells.
Test [2] has as its system parental and drug-resistant CAOV2 cells. It counts as cell-based, human. Particulars: 72-h cell viability assay, CAOV2-R versus parental.
The next test relates to ID8-R cells. The experiment in a line: Growth in the presence of DOX (trypan blue exclusion test). It counts as cell-based, murine. Particulars: DOX 3 μM, after a one-week period. The procedure:
(§1) FIG. 9. Susceptibility of parental and resistant ID8 and CAOV2 tumor cells to PTX, CBDCA and DOX. (a) Characterization of side population (SP) in the parental (P) and drug-resistant (R) ID8 (left panel) and CAOV2 (right panel) tumor cells by Hoechst 33342 dye staining. One representative experiment of two independent experiments performed in duplicates is shown. Growth of the parental and drug-resistant tumor variants of ID8 (b) and CAOV2 (c) cells in the presence of PTX (59 nM) and CBDCA (2.6 μM) (left panel) or DOX (3 μM) (right panel) was determined by a trypan blue exclusion test for cell viability. Bars represent the mean±SD of two independent experiments using triplicate samples.

A further test concerns CAOV2-R cells. The test is described as above. Particulars: DOX 3 μM, after a one-week period. It counts as cell-based, human. The procedure:
as §1

Test [3] deals with OVV-EGFP in ID8-R tumor cells. The test is classed as cell-based, vaccinia virus.
For test [4], the system named is OVV-EGFP in CAOV2-R tumor cells. The test is classed as cell-based, vaccinia virus.
The next test concerns ID8-R tumor cells. The test is classed as cell-based, murine. The settings on record: 24 h cultures, OVV MOI of 1 or DOX 1 μM alone.

Consider `COc1cccc2c1C(=O)c1c(O)c3c(c(O)c1C2=O)C[C@@](O)(C(=O)CO)C[C@@H]3O[C@H]1C[C@H](N)[C@H](O)[C@H](C)O1` [DOX, doxorubicin], for which the “IC50 values higher compared to the parental cells” value in test [1] was “approximately 10 fold”. Moreover, the “differences in the IC50 values between the resistant and parental cells” value in test [2] was determined as 3 fold. For the same compound, the dead cells entry with ID8-R cells and in the test on CAOV2-R cells was “over 90%” each time. The “decrease in viral titers” value in test [3] came out at 10 fold; in test [4], 3 fold. The “cells with apoptosis or necrosis” value in the test with ID8-R tumor cells was ~20%.

The values above are taken from US20190307821A1, “METHODS AND COMPOSITIONS FOR CANCER THERAPY” (priority 2016, published 2019).
